The values that follow come from ChEMBL document CHEMBL4418278, “Serine racemase inhibitor” (2014).

In the first assay the target is T1, Serine racemase (Homo sapiens) (UniProt Q9GZT4).
T1 sequence (whole entry): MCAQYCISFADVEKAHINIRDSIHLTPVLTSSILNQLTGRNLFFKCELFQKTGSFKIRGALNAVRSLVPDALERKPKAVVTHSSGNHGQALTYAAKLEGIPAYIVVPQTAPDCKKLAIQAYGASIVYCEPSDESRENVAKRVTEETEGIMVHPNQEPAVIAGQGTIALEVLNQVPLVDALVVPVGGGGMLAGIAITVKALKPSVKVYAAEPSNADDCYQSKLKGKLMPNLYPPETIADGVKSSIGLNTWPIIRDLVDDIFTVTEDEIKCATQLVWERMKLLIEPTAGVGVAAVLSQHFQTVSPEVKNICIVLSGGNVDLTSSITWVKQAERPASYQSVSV
Briefly: Inhibition of recombinant human SRR expressed in Escherichia coli assessed as reduction in conversion of L-serine to D-serine at 1 mM incubated for => 8 hrs in presence of PLP and recombinant D-serine dehydratase 1 by spectrophotometry relative to control.
Regarding `O=C(/C=C/c1ccc(F)cc1)NC(=S)NNC(=O)Cc1ccccc1`, the inhibition (usually the drop in the measured response relative to a control, in per cent) came to 45%. On the same count and under the same terms, next, `COc1cccc(CC(=O)NNC(=S)NC(=O)/C=C/c2cc(Br)cc(Br)c2)c1`: 31%; `Cc1ccc(S(=O)(=O)NCCNC(=S)Nc2ccccc2Cl)cc1`: 69%. Same read-out and setting: next, `COc1ccc(/C=C/C(=O)NC(=S)NNC(=O)Cc2cccs2)c(OC)c1`: 27%. Same read-out and setting: next, `COc1ccc(NC(=O)CNC(=O)COc2ccccc2)c(C)c1`: 62%; `O=C(NCCNS(=O)(=O)c1ccc(Br)cc1)Nc1ccc(Cl)c(Cl)c1`: 49%.

For the molecule `COc1ccc(S(=O)(=O)NCCNC(=O)Nc2ccc(Cl)c(Cl)c2)cc1`, the inhibition amounted to 61%. Consider `Cc1ccc(S(=O)(=O)NCCNC(=O)Nc2ccc(Cl)c(Cl)c2)cc1`, for which the inhibition was determined as 52%. The same measure, in the same setting: next, `Cc1cccc(CC(=O)NNC(=S)NC(=O)/C=C/c2cc(Br)cc(Br)c2)c1`: 24%; `Cc1ccc(/C=C/C(=O)NC(=S)NNC(=O)Cc2cccs2)cc1`: 24%. The same measure, in the same setting: the figure for `O=C(/C=C/c1ccc(F)cc1)NC(=S)NNC(=O)c1cccs1` is 46%. `O=C(/C=C/c1cc(Br)cc(Br)c1)NC(=S)NNC(=O)c1ccccc1`: the inhibition worked out at 31%. Regarding `COc1ccc(C)cc1NC(=S)NCCNS(=O)(=O)c1ccc(C)cc1`, the inhibition came out at 63%. On the same count and under the same terms, next, `Cc1ccc(S(=O)(=O)NCCNC(=O)Nc2ccc(Br)cc2Cl)cc1`: 57%. `COc1cccc(NC(=O)NCCNS(=O)(=O)c2ccc(C)cc2)c1`: the inhibition came out at 64%. On the same count and under the same terms, the figure for `O=C(Cc1cccs1)NNC(=S)NC(=O)Cc1ccccc1` is 61%; for `O=C(NCCCNS(=O)(=O)c1ccc(Br)cc1)Nc1ccc(Cl)c(Cl)c1` it is 55%. The same measure, in the same setting: the figure for `O=C(/C=C/c1ccc(-c2ccccc2)cc1)NC(=S)NNC(=O)Cc1cccs1` is 55%. As for `Cc1ccc(S(=O)(=O)Nc2ccccc2NC(=O)Nc2ccc(Cl)c(Cl)c2)cc1`, the inhibition came out at 49%. Same read-out and setting: next, `COc1cccc(OC)c1/C=C/C(=O)NC(=S)NNC(=O)Cc1ccccc1`: 24%; `O=C(COc1ccc(Br)cc1)NCC(=O)NC1CCCCC1`: 53%; `O=C(Cc1cc(F)cc(F)c1)NNC(=S)NC(=O)Cc1ccccc1`: 67%.

As for `O=C(/C=C/c1c(Cl)cc(Cl)cc1Cl)NC(=S)NNC(=O)Cc1cccs1`, the inhibition stood at 33%. Same read-out and setting: next, `COc1ccc(S(=O)(=O)NCCCNC(=O)Nc2ccc(Cl)c(Cl)c2)cc1`: 55%; `O=C(/C=C/c1cc(Br)cc(Br)c1)NC(=S)NNC(=O)CCc1ccccc1`: 31%; `Cc1cccc(CC(=O)NNC(=S)NC(=O)Cc2ccccc2)c1`: 45%. With `O=C(/C=C/c1cc(Br)cc(Br)c1)NC(=S)NNC(=O)c1cccs1`, the inhibition was determined as 52%. Same read-out and setting: next, `O=C(Cc1c(F)cccc1F)NNC(=S)NC(=O)Cc1ccccc1`: 74%; `Cc1ccc(S(=O)(=O)NCCNC(=O)NS(=O)(=O)c2ccccc2C)cc1`: 62%.

Turning to `COc1ccccc1NC(=S)NCCNS(=O)(=O)c1ccc(C)cc1`, the inhibition stood at 76%. On the same count and under the same terms, next, `O=C(/C=C/c1cc(Br)cc(Br)c1)NC(=S)NNC(=O)Cc1cccs1`: 28%; `O=C(O)CC(=O)O`: 54 to 85%; `Cc1ccc(S(=O)(=O)NCCNC(=O)Nc2ccc(Cl)cc2Cl)cc1`: 59%. Turning to `O=C(/C=C/c1ccc(Cl)cc1)NC(=S)NNC(=O)Cc1cccs1`, the inhibition came out at 23%. Still for that read-out and setting: the figure for `COCCCNC(=S)NCCNS(=O)(=O)c1ccc(C)cc1` is 86%; for `O=C(Cc1ccccc1)NNC(=S)NC(=O)Cc1ccccc1` it is 41%; for `Cc1ccc(S(=O)(=O)NCCNC(=O)Nc2ccc(F)cc2)cc1` it is 76%. On the same count and under the same terms, next, `O=C(/C=C/c1c(F)cc(F)cc1F)NC(=S)NNC(=O)Cc1ccccc1`: 33%. The same measure, in the same setting: the figure for `O=C(/C=C/c1ccc(C(F)(F)F)cc1)NC(=S)NNC(=O)Cc1cccs1` is 44%. As to `O=C(CCc1ccccc1)NNC(=S)NC(=O)Cc1ccccc1`, the inhibition turned out to be 70%.

Take `Cc1ccc(S(=O)(=O)NCCNC(=O)Nc2ccccc2)cc1`: the inhibition is 79%. The same measure, in the same setting: the figure for `Cc1ccc(S(=O)(=O)NCCNC(=S)Nc2ccccc2C)cc1` is 58%. Still for that read-out and setting: next, `Cc1ccc(S(=O)(=O)Nc2ccccc2NC(=O)Nc2ccc(F)cc2)cc1`: 54%; `O=C(/C=C/c1cc(Br)cc(Br)c1)NC(=S)NNC(=O)Cc1ccccc1`: 20%; `O=C(/C=C/c1cc(Br)cc(Br)c1)NC(=S)NNC(=O)Cc1ccc(F)cc1`: 49%. For the molecule `O=C(Cc1ccc(F)cc1)NNC(=S)NC(=O)Cc1ccccc1`, the inhibition amounted to 0%. The same measure, in the same setting: the figure for `COc1cccc(OC)c1/C=C/C(=O)NC(=S)NNC(=O)c1cccs1` is 31%. The same measure, in the same setting: the figure for `O=C(/C=C/c1ccc([N+](=O)[O-])cc1)NC(=S)NNC(=O)Cc1cccs1` is 35%.

For the next assay, the target named is T1, Serine racemase (Homo sapiens). Kind of assay: Inhibition of recombinant human SRR expressed in Escherichia coli assessed as reduction in conversion of L-serine to D-serine at 0.1 mM incubated for => 8 hrs in presence of PLP and recombinant D-serine dehydratase 1 by spectrophotometry relative to control.
Turning to `COc1ccc(NC(=O)CNC(=O)COc2ccccc2)c(C)c1`, the inhibition was 87%. `C[C@@H](NC(=O)CNS(=O)(=O)Cc1ccccc1)c1ccccc1`: the inhibition turned out to be 85%.

Consider `O=C(Cc1ccc(F)cc1)NNC(=S)NC(=O)CC1CCCCC1`, for which the inhibition was determined as 67%. On the same count and under the same terms, next, `O=C(Cc1ccc(F)cc1)NNC(=S)NC(=O)Cc1c(F)cccc1F`: 66%; `Cc1ccc(S(=O)(=O)NCC(=O)Nc2cccc(Br)c2)cc1`: 52%. The same measure, in the same setting: next, `Cc1ccc(S(=O)(=O)NCC(=O)NCc2ccc(Br)cc2)cc1`: 75%. The same measure, in the same setting: the figure for `O=C(COc1ccc(Br)cc1)NCC(=O)NC1CCCCC1` is 99%. With `Cc1ccc(/C=C/S(=O)(=O)NCC(=O)Nc2ccc(OCc3ccccc3)cc2)cc1`, the inhibition was determined as 63%. Still for that read-out and setting: the figure for `O=C(CNS(=O)(=O)Cc1ccccc1)Nc1c(F)cccc1F` is 77%. Still for that read-out and setting: the figure for `Cc1ccc(S(=O)(=O)NCC(=O)Nc2cccc([N+](=O)[O-])c2)cc1` is 62%; for `Cc1ccc(S(=O)(=O)NCC(=O)NNC(=O)Cc2ccc(F)cc2)cc1` it is 60%. Same read-out and setting: the figure for `Cc1ccc(S(=O)(=O)NCC(=O)NCc2ccc(Br)cc2F)cc1` is 67%; for `Cc1ccc(S(=O)(=O)NCC(=O)OCc2ccccc2)cc1` it is 84%. For `O=C(Cc1ccc(F)cc1)NNC(=S)NC(=O)Cc1ccc(F)cc1`, the inhibition worked out at 67%. Still for that read-out and setting: next, `COc1ccc(S(=O)(=O)NCC(=O)Nc2cccc(Br)c2)cc1`: 59%; `O=C(O)CC(=O)O`: 62 to 110%; `O=C(CNS(=O)(=O)c1ccc(Cl)cc1)Nc1ccccc1Br`: 60%. Still for that read-out and setting: next, `Cc1ccc(S(=O)(=O)NCC(=O)Nc2ccc(OCc3ccccc3)cc2)cc1`: 56%; `O=C(CNS(=O)(=O)Cc1ccccc1)Nc1cccc(Br)c1`: 63%. The same measure, in the same setting: the figure for `Cc1ccc(S(=O)(=O)NCC(=O)N[C@@H](C)c2ccccc2)cc1` is 86%; for `O=C(CNS(=O)(=O)Cc1ccccc1)OCc1ccccc1` it is 65%.
